From paper PMC4109680, “Identification and Preclinical Pharmacology of the γ-Secretase Modulator BMS-869780” (International Journal of Alzheimer's Disease, 2014)
Read-outs that look alike come from different tables or passages of the source.

System: brain Aβ1-42, brain Aβ1-40, plasma Aβ1-40
Test: Rat intraperitoneal dose response, brain and plasma Aβ 5 hours after dosing
Format: in vivo
Conditions: for IC50: Rattus norvegicus
Method: IC50 determinations for Aβ1-42 and Aβ1-40 in H4-APPsw cultures in 384-well format were determined using homogeneous time-resolved fluorescence immunoassays as previously described. The principle of these assays is illustrated in Figures 1(c) and 1(d). In other experiments using H4-APPsw cultures, Aβ was quantified by ELISA; for Aβ1-42 the combination of monoclonal antibodies was 26D6 and 565-HRP; for Aβ1-40 it was TSD and 26D6-HRP, and for Aβ1-x it was 4G8 and 26D6-HRP. In some experiments a novel 4-plex Aβ electrochemiluminescence immunoassay was used (Mesoscale Discovery catalog number N45ZA-1). Briefly, the 4-plex was carried out in 96-well format, with 4 separate spots of capture antibodies in each well. The 96-well plates were prepared by the manufacturer, with spots of monoclonal antibodies for Aβ1-42, Aβ1-40, and Aβ1-38, and an additional fourth spot of streptavidin in each well. Plates were initially incubated with blocking buffer (5% BSA in phosphate buffered saline, 200 μL per well) for 2 hours at ambient temperature and then with D2A6H-biotin conjugate (50 ng/mL in 1% BSA, phosphate buffered saline, 25 μL per well) for 1 hour. Plates were then rinsed with phosphate buffered saline before addition of experimental samples for determination of Aβ1-42, Aβ1-40, Aβ1-38, and Aβ1-37 levels, following the manufacturer's instructions as for the Aβ 3-plex kit (catalog number K15148E-1). Rat brain extracts for use in the 4-plex assay were made in 0.2% diethylamine, as previously described. For detection of rat Aβ peptides in the 4-plex (Figure 5), 252Q6-sulfo-tag conjugate was used, and for detection of human Aβ peptides from cell cultures 6E10-sulfo-tag conjugate was used. For Aβ in transiently transfected PS1/PS2 dKO fibroblasts, Aβ1-42 was quantified using an ELISA kit (WACO), and Aβ1-40 was quantified by ELISA as described above for H4-APPsw cultures. For triple transgenic mice (3xTg; [63]), human transgenic Aβ1-42 was assayed in brain homogenates using an ELISA kit (WACO). For the rat and mouse experiments illustrated in Figures 7 and 8, brain samples were prepared by solid phase extraction, and endogenous rat brain Aβ1-42 and Aβ1-40 were quantified by ELISA as previously described for wild type mice. For brain extracts made using solid phase extraction, calibration of Aβ was relative, based on the approximately linear response of the assay in the range tested. For brain extracts made in 0.2% diethylamine, Aβ1-42, Aβ1-40, Aβ1-38, and Aβ1-37 concentrations in brain and cell culture samples were determined by fitting the results of immunoassays against calibration curves derived from a range of dilutions of the corresponding synthetic peptides on each assay plate using a quadratic curve fit (Graphpad Prizm 5.0). Aβ1-x was calibrated in the same way against synthetic Aβ1-40 peptide. Results were expressed in units of pM, corrected for sample dilution.
Figure 7 BMS-869780 dose response and evaluation of residual Aβ levels in rat brain. (a) Groups of rats received intraperitoneal (IP) injections of vehicle or BMS-869780 at doses of 100, 30, 10, 3, 1, and 0.3 mg/kg. Additional rats were dosed with GSI BMS-698861 at 30 mg/kg as a positive control for Aβ-lowering. Group sizes were seven rats for each dose of BMS-869780 and 14 rats for vehicle and GSI dose groups. Brain and plasma were harvested 5 hours after dosing. Brain Aβ1-42 (green), brain Aβ1-40 (blue), brain Aβ1-x (black), and plasma Aβ1-40 (red) were determined. Values are expressed as % relative to vehicle group mean. Whiskers represent standard error. ⊗Aβ1-x was not determined in the groups dosed at 3, 1, and 0.3 mg/kg. (b) Brain Aβ1-40 was plotted against brain Aβ1-42 for each rat dosed with BMS-869780 (black ▼) and for each rat dosed with vehicle (grey ●). Values are expressed as % relative to vehicle group mean. Whiskers represent standard error. […]

[1] = 3 mg/kg IP, 5 hours after dosing

COc1cc(Nc2nc3n(n2)CCCC[C@H]3c2ccc(F)cc2)ccc1-n1cnc(Cl)c1 [BMS-869780]
plasma Aβ1-40 lowering (0.3 mg/kg IP, 5 hours after dosing): ca. 50% | brain Aβ1-40 lowering [1]: ca. 50% | brain Aβ1-42 lowering [1]: ca. 50% | residual Aβ1-40 assay signal at high plasma concentrations (best fit curve) (% relative to vehicle): 11% | residual Aβ1-42 assay signal at high plasma concentrations (best fit curve) (% relative to vehicle): 29% | IC50 (ip, four-parameter fit, 95% confidence interval 44–158 nM, read-out: apparent IC50 (plasma concentration) for plasma Aβ1-40): 84 nM | IC50 (ip, four-parameter fit, 95% confidence interval 618–1053 nM, read-out: apparent IC50 (plasma concentration) for brain Aβ1-42): 807 nM | IC50 (ip, four-parameter fit, 95% confidence interval 704–1264 nM, read-out: apparent IC50 (plasma concentration) for brain Aβ1-40): 943 nM | IC50 (IP, 5 hours, read-out: concentration in plasma associated with 50% lowering of brain Aβ1-42): ~1000 nM | brain Aβ1-x levels (highest three doses (10, 30, 100 mg/kg IP), 5 hours): not affected | lowering of brain Aβ1-42 and Aβ1-40 (in mice and rats): ≥ 75%
